Laboratory results from US11965126B2, “Flame retardant for thermosetting resin including aromatic phosphoric acid ester, thermosetting resin composition including same, and cured material and application of same” (priority 2018, dated 2024).
Where two headings read alike, the source gives them in different places.

Assay: Solvent solubility of flame retardants
Type: physicochemical
Conditions: for Solvent solubility compared with FR4 and FR5: comparison with traditionally-known phosphorus-type flame retardants FR4 and FR5
Protocol: 5 g of a flame retardant was added repeatedly to 100 mL of the following respective solvents at a temperature of 20° C. until the undissolved flame retardant was detected; and a largest amount of the flame retardant dissolved was measured. This largest amount was considered to be solvent solubility. • Solvents: toluene, methyl ethyl ketone (MEK), and propylene glycol monomethyl ether (PM) Materials for Synthesizing Aromatic Phosphoric Acid Esters
Flame retardants FR1 to FR4 as the flame retardants for thermosetting resin were evaluated for solvent solubility by the above method.

[1] = methyl ethyl ketone, 20° C., largest amount dissolved, added in 5 g portions
[2] = propylene glycol monomethyl ether, 20° C., largest amount dissolved, added in 5 g portions
[3] = toluene, 20° C., largest amount dissolved, added in 5 g portions

| Compound | Solvent solubility compared with FR4 and FR5 | Solvent solubility, MEK [1] [g/100 mL] | Solvent solubility, PM [2] [g/100 mL] | Solvent solubility, Toluene [3] [g/100 mL] | Solvent solubility, MEK [g/100 mL] | Solvent solubility, PM [g/100 mL] | Solvent solubility, Toluene [g/100 mL] |
| --- | --- | --- | --- | --- | --- | --- | --- |
| Cc1cccc(C)c1OP(=O)(Oc1ccc(C2(c3ccc(OP(=O)(Oc4c(C)cccc4C)Oc4c(C)cccc4C)cc3)CC(C)CC(C)(C)C2)cc1)Oc1c(C)cccc1C (centres unmarked) [FR1] | superior in solvent solubility | 135 | 85 | 140 | – | – | – |
| Cc1cccc(C)c1OP(=O)(Oc1ccc(C2(c3ccc(OP(=O)(Oc4c(C)cccc4C)Oc4c(C)cccc4C)cc3)CCCCCCCCCCC2)cc1)Oc1c(C)cccc1C [FR2] | superior in solvent solubility | 50 | 10 | 130 | – | – | – |
| Cc1cccc(C)c1OP(=O)(Oc1cccc(OP(=O)(Oc2c(C)cccc2C)Oc2c(C)cccc2C)c1)Oc1c(C)cccc1C [FR3, 1,3-phenylenebis(di-2,6-xylyl phosphate), reference compound] | – | – | – | – | 55 | 10 | 75 |
| O=[PH]1Oc2ccccc2-c2ccccc21 (centres unmarked) [FR5, 9,10-dihydro-9-oxa-10-phosphaphenanthrene-10-oxide, reference compound] | – | 5 | 15 | <5 | – | – | – |
